Experimental data: publication PMC6017733, “Identification of Bichalcones as Sirtuin Inhibitors by Virtual Screening and In Vitro Testing” (Molecules : A Journal of Synthetic Chemistry and Natural …, 2018)

Columns and labels:
Format in all cases: biochemical
sirt1 = target: T1, sirt1 (Homo sapiens, UniProt Q96EB6); experiment: fluorescent deacetylase assay (ZMAL substrate, trypsin-coupled)
T1 construct: sirt1_133–747 (GST-tagged)
T1 sequence (Q96EB6 133-747): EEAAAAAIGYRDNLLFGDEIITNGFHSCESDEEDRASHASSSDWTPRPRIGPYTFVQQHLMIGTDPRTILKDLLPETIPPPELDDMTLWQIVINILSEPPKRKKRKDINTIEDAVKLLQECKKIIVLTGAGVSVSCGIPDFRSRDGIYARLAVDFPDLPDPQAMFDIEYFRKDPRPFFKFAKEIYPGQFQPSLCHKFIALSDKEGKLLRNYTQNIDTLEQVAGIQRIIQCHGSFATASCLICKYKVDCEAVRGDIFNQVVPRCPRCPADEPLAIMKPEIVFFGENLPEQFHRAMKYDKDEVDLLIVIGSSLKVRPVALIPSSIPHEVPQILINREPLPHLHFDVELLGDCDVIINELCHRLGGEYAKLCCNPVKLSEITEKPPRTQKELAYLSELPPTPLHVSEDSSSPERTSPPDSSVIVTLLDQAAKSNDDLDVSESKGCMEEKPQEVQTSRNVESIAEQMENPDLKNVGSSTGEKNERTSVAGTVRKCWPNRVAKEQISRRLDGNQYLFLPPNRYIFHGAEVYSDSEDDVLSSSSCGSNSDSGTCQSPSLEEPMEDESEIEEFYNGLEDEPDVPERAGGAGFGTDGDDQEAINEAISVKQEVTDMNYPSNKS

sirt2 = target: T2, sirt2 (Homo sapiens, UniProt Q8IXJ6); experiment: as above
T2 sequence (Q8IXJ6 56-356): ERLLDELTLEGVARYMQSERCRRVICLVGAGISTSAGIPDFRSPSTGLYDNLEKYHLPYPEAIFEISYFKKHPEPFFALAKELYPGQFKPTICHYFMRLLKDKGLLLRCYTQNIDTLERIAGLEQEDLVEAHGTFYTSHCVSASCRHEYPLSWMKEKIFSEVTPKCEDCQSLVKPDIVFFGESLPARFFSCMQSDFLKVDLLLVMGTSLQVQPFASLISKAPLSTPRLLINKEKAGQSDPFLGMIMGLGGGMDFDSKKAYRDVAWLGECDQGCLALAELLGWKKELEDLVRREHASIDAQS

sirt3 = target: T3, sirt3 (Homo sapiens, UniProt Q9NTG7); experiment: fluorescent deacetylase assay, % inhibition at […]; conditions: read-out: Sirt 3 (μM or % Inhibition)
T3 construct: sirt3_118–395 (His6-tagged)
T3 sequence (Q9NTG7 118-395): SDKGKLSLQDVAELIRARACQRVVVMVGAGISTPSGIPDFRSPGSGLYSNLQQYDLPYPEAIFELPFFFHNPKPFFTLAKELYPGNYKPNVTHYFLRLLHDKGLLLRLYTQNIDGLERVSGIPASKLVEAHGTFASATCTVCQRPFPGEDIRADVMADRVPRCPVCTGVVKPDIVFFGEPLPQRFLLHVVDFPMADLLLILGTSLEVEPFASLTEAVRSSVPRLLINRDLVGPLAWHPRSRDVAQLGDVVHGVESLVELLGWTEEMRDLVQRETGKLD

Row | SMILES | IC50 (sirt1) | IC50 (sirt2) | inhibition at 50 µM (sirt3)
1 | COc1cc(O)c(C(=O)/C=C/c2ccc(O)cc2)cc1Oc1ccc(C(=O)/C=C/c2ccc(O)cc2O)c(O)c1 [compound 9, rhuschalcone I analogue] | 40.8 ± 8.5 µM | 44.8 ± 5.1 µM | 
2 | COc1cc(O)c(C(=O)/C=C/c2ccc(O)cc2)cc1Oc1ccc(C(=O)/C=C/c2ccc(O)cc2)c(O)c1 [compound 8, rhuschalcone IV] | 46.7 ± 6 µM | 48.5 ± 39.5 µM | 38%
